Assay [1] is described as follows: Binding affinity to Influenza A virus (A/Puerto Rico/8/1934(H1N1)) PR8 hemagglutinin-1 by biolayer interferometry analysis. (In general: Biolayer interferometry detects binding as a change in optical thickness at a sensor tip.)
Assay [2] in a line: Binding affinity to Influenza A virus (A/Hong Kong/1/1968(H3N2)) […] by biolayer interferometry analysis.
Assay [3] concerns Influenza A virus (A/Puerto Rico/8/1934(H1N1)). Kind of assay: Binding affinity to Influenza A virus (A/Puerto Rico/8/1934(H1N1)) PR8 hemagglutinin-1 assessed as association constant after 180 secs by biolayer interferometry analysis.
For assay [4], the system named is Influenza A virus (A/Hong Kong/1/1968(H3N2)). The experiment in a line: Potency index, ratio of Kd for Arbidol to Kd for test compound for binding affinity to Influenza A virus (A/Hong Kong/1/1968(H3N2)) […] by biolayer interferometry analysis.
The test system is the same in assay [5]. Kind of assay: Binding affinity to Influenza A virus (A/Hong Kong/1/1968(H3N2)) […] assessed as association constant after 180 secs by biolayer interferometry analysis.
The test system is the same in assay [6]. The experiment in a line: Binding affinity to Influenza A virus (A/Hong Kong/1/1968(H3N2)) […] assessed as dissociation constant after 180 secs by biolayer interferometry analysis.
For assay [7], the system named is Influenza A virus (A/Puerto Rico/8/1934(H1N1)). Kind of assay: Binding affinity to Influenza A virus (A/Puerto Rico/8/1934(H1N1)) PR8 hemagglutinin-1 assessed as dissociation constant after 180 secs by biolayer interferometry analysis.
Assay [8] shares this test system. Kind of assay: Potency index, ratio of Kd for Arbidol to Kd for test compound for binding affinity to Influenza A virus (A/Puerto Rico/8/1934(H1N1)) PR8 hemagglutinin-1 by biolayer interferometry analysis.

A word on the Kd: it is the equilibrium constant for the complex coming apart. In the case of `CCOC(=O)c1c(CSc2ccc3ccccc3c2)n(C)c2cc(Br)c(O)c(CN(C)C)c12`, the Kd entry in assay [1] and in assay [2] was “Not Active” in each case.

Consider `CCOC(=O)c1c(CSc2cccc(O)c2)n(C)c2cc(Br)c(O)c(CN(C)C)c12`, for which the K amounted to 7.06 ×10⁴ /M/s in assay [3], 2.41 ×10⁵ /M/s in assay [5], 1.93 ×10⁻² /s in assay [6] and 3.42 ×10⁻² /s in assay [7]. The Kd in assay [1] (read-out: Kd) was 0.48 to 0.55 µM. The figures for the Ratio in assay [4] and in assay [8] were 1150 and 98, respectively.

With `CCOC(=O)c1c(CSc2cccc(N)c2)n(C)c2cc(Br)c(O)cc12`, the Kd entry in assay [1] is “Not Active”; in assay [2] (read-out: Kd), above 100 µM.

Turning to `CCOC(=O)c1c(CSc2cccc(O)c2)n(C)c2cc(Br)c(O)cc12`, the results for the Kd in assay [1] (read-out: Kd) and in assay [2] (read-out: Kd) were 75 µM and 17 µM, respectively.

Consider `CCOC(=O)c1c(CSc2ccccc2)n(C)c2cc(Br)c(O)cc12`, for which the values for the Kd in assay [1] (read-out: Kd) and in assay [2] (read-out: Kd) were 38 µM and 11 µM, respectively.

`CCOC(=O)c1c(CSc2ccccc2)n(C)c2cc(Br)c(O)c(CN(C)C)c12` [UMIFENOVIR]: the K in assay [3] amounted to 1 ×10³ /M/s; in assay [5] it was 2.3 ×10² /M/s; in assay [6], 2.8 ×10⁻² /s; in assay [7] it was 4.8 ×10⁻² /s. The Kd in assay [1] (read-out: Kd) came out at 47 µM; in assay [2] (read-out: Kd), 92 µM.

Consider `CCOC(=O)c1c(CSc2ccccc2)n(C)c2cc(Br)c(O)c(CN3CCN(C(=O)OC(C)(C)C)CC3)c12`, for which the equilibrium dissociation constant (Kd) was 41 µM in assay [1] (read-out: Kd) and “Not Active” in assay [2].

Take `CCOC(=O)c1c(CSc2ccccc2)n(C)c2cc(Br)c(O)c(CN3CCN(CCO)CC3)c12`: the results for the Kd result in assay [1] and in assay [2] (read-out: Kd) were “Not Active” and 46 µM, respectively.

On to `CCOC(=O)c1c(CSc2ccc3ccccc3c2)n(C)c2cc(Br)c(O)cc12`, for which the Kd is 18 µM in assay [1] (read-out: Kd) and 45 µM in assay [2] (read-out: Kd).

Take `CCOC(=O)c1c(CSc2cccc(N)c2)n(C)c2cc(Br)c(O)c(CN(C)C)c12`: the Kd result in assay [1] is “Not Active”; in assay [2] (read-out: Kd) it was 7.4 µM.

The values are drawn from ChEMBL document CHEMBL4052750, “Structure-based optimization and synthesis of antiviral drug Arbidol analogues with significantly improved affinity to influenza hemagglutinin” (Bioorg Med Chem Lett, 2017).
